According to ChEMBL document CHEMBL4765451, “The one-pot synthesis of butyl-1H-indol-3-alkylcarboxylic acid derivatives in ionic liquid as potent dual-acting agent for management of BPH” (Eur J Med Chem, 2020):

Experiments:
[1] = target: T1, Alpha-1A adrenergic receptor (Homo sapiens, UniProt P35348); test: Antagonist activity at human alpha1A receptor transfected in HEK293 cells co-transfected with Galpha16 assessed as reduction in intracellular calcium release incubated for 40 mins by Fluo-4AM dye based fluorescence assay; format: functional, cell-based
T1 sequence (P35348 whole entry): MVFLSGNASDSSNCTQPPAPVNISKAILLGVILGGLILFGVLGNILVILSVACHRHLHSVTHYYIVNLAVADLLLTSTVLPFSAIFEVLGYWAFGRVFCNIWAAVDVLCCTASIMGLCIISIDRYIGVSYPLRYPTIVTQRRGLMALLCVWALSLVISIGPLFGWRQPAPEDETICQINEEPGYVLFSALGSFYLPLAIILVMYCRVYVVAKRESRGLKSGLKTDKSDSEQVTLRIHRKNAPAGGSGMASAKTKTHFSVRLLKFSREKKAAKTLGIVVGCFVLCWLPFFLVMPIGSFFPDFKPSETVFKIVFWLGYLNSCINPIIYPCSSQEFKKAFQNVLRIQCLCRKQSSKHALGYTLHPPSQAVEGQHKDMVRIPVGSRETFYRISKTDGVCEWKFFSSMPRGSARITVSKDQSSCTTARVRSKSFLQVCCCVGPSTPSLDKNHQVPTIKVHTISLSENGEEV

[2] = target: T2, Alpha-1B adrenergic receptor (Homo sapiens, UniProt P35368); test: Antagonist activity at human alpha1B receptor transfected in HEK293 cells co-transfected with Galpha16 assessed as reduction in intracellular calcium release incubated for 40 mins by Fluo-4AM dye based fluorescence assay; format: functional, cell-based
T2 sequence (P35368 whole entry): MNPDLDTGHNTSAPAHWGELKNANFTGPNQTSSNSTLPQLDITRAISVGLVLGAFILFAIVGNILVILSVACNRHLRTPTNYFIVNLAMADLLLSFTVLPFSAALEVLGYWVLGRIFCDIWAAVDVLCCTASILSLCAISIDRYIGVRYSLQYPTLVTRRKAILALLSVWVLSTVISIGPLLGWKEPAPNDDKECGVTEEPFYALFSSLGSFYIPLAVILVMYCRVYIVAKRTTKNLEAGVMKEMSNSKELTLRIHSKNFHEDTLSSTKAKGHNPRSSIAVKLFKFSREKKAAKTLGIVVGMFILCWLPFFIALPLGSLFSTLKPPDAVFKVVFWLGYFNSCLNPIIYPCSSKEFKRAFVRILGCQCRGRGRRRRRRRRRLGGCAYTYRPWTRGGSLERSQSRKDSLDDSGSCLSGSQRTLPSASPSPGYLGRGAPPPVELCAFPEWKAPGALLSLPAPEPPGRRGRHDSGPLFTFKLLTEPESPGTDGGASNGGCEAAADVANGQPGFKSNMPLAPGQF

[3] = target: T3, Alpha-1D adrenergic receptor (Homo sapiens, UniProt P25100); test: Antagonist activity at human alpha1D receptor transfected in HEK293 cells co-transfected with Galpha16 assessed as reduction in intracellular calcium release incubated for 40 mins by Fluo-4AM dye based fluorescence assay; format: functional, cell-based
T3 sequence (P25100 whole entry): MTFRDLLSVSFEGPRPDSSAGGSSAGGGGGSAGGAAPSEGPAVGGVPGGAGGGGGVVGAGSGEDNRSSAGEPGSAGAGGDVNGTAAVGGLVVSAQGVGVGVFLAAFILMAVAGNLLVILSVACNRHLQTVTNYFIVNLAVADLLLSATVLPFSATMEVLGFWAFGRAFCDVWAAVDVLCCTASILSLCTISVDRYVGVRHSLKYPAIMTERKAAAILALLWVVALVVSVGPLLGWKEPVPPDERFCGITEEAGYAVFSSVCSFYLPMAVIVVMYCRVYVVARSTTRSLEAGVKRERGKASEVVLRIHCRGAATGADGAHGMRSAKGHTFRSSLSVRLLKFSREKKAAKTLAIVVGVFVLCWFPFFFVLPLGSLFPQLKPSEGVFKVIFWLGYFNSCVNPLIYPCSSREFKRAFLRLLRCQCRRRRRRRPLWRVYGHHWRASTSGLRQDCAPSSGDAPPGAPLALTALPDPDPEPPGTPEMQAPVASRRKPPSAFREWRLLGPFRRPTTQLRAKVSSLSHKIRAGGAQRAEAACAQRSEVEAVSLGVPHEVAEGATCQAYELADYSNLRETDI

[4] = Inhibition of 5-alpha reductase in rat liver microsomes assessed as inhibition of DHT formation using testosterone as substrate incubated for 10 mins by NADPH assay
[5] = Tmax in Sprague-Dawley rat at 20 mg/kg, ip; format: ADME, organism-based; details: in vivo
[6] = Cmax in Sprague-Dawley rat at 20 mg/kg, ip; format: ADME, organism-based; parameters: route intraperitoneal, dose 20 mg/kg; details: in vivo
[7] = AUC (0 to t) in Sprague-Dawley rat at 20 mg/kg, ip; format: ADME, organism-based; parameters: dose 20 mg/kg; details: in vivo
[8] = AUC (0 to infinity) in Sprague-Dawley rat at 20 mg/kg, ip; format: ADME, organism-based; parameters: time infinity, route intraperitoneal, dose 20 mg/kg; details: in vivo
[9] = MRT in Sprague-Dawley rat at 20 mg/kg, ip; format: ADME, organism-based; details: in vivo
[10] = Half life in Sprague-Dawley rat at 20 mg/kg, ip; format: ADME, organism-based; details: in vivo
[11] = Bioavailability in Sprague-Dawley rat at 20 mg/kg, ip; format: ADME, organism-based; details: in vivo
[12] = Tmax in Sprague-Dawley rat at 2 mg/kg, iv; format: ADME, organism-based; details: in vivo
[13] = Cmax in Sprague-Dawley rat at 2 mg/kg, iv; format: ADME, organism-based; parameters: route intravenous, dose 2 mg/kg; details: in vivo
[14] = AUC (0 to t) in Sprague-Dawley rat at 2 mg/kg, iv; format: ADME, organism-based; parameters: dose 2 mg/kg; details: in vivo
[15] = AUC (0 to infinity) in Sprague-Dawley rat at 2 mg/kg, iv; format: ADME, organism-based; parameters: time infinity, route intravenous, dose 2 mg/kg; details: in vivo
[16] = MRT in Sprague-Dawley rat at 2 mg/kg, iv; format: ADME, organism-based; details: in vivo
Huh-7 = test: Cytotoxicity against human Huh-7 cells assessed as reduction in cell viability at 0.390625 to 100 uM incubated for 72 hrs by MTT assay; format: cell-based; details: huh-7, 72 h, dose 0.390625-100 µM
Caco-2 = test: Cytotoxicity against human Caco-2 cells assessed as reduction in cell viability at 0.390625 to 100 uM incubated for 72 hrs by MTT assay; format: cell-based; details: caco-2, 72 h, dose 0.390625-100 µM
[17] = Half life in Sprague-Dawley rat at 2 mg/kg, iv; format: ADME, organism-based; details: in vivo

Row | Compound | IC50 [1] [nM] | IC50 [2] [nM] | IC50 [3] [nM] | IC50 [4] [nM] | also measured
1 | O=C(O)CCCc1cn(CCCCCN2CCN(c3ccccc3Cl)CC2)c2ccccc12 | 32.9 | > 1000 | 329 | 612 | –
2 | O=C(O)CCCc1cn(CCCCN2CCN(c3ccccc3Cl)CC2)c2ccccc12 | > 1000 | > 1000 | 189 | > 5000 | –
3 | CC(C)(C)NC(=O)[C@H]1CC[C@H]2[C@@H]3CC[C@H]4NC(=O)C=C[C@]4(C)[C@H]3CC[C@]12C [FINASTERIDE] | – | – | – | 590 | –
4 | CCOc1ccccc1OCCN[C@H](C)Cc1ccc(OC)c(S(N)(=O)=O)c1 [TAMSULOSIN] | – | 4.2 | 0.15 | – | –

Now from value to compound, other results behind:

Row | IC50 [1] [nM] | IC50 [2] [nM] | IC50 [3] [nM] | IC50 [4] [nM] | Compound | also measured
5 | > 1000 | 9.8 | 378 | > 5000 | COc1ccccc1N1CCN(CCCCCn2cc(CCCC(=O)O)c3ccccc32)CC1 | –
6 | 20.8 | > 1000 | 189 | 568 | COc1ccccc1N1CCN(CCCCn2cc(CCCC(=O)O)c3ccccc32)CC1 | Tmax [5]: 3 min; Cmax [6]: 89.6 ng/mL; AUC(0-t) [7]: 17.5 ng·h/mL; AUC(0-inf) [8]: 26.9 ng·h/mL; MRT [9]: 1.49 h; half-life [10]: 5.75 h; bioavailability [11]: 8.83%; Tmax [12]: 3 min; Cmax [13]: 37.9 ng/mL; AUC(0-t) [14]: 12.3 ng·h/mL; AUC(0-inf) [15]: 30.5 ng·h/mL; MRT [16]: 1.94 h; Activity (Huh-7): Non-Toxic; Activity (Caco-2): Non-Toxic; half-life [17]: 11 h
7 | > 1000 | > 1000 | 164 | > 5000 | COc1ccccc1N1CCN(CCCn2cc(CCCC(=O)O)c3ccccc32)CC1 | –
